ChEMBL document CHEMBL3044757, “Design, synthesis and in vitro antimicrobial activity of novel phenylbenzamido-aminothiazole-based azasterol mimics” (2013)
Values after ≈ are worked out from the molar mass of the structure shown. Active and inactive are the calls of the source. The rule behind the calls is not given here.

Assays:
Assay type in all cases: functional
[1] = test system: Bacillus licheniformis; experiment: Antibacterial activity against Bacillus licheniformis assessed as growth inhibition after 18 to 24 hr by resazurin assay
[2] = test system: Enterobacter cloacae; experiment: Antibacterial activity against Enterobacter cloacae assessed as growth inhibition after 18 to 24 hr by resazurin assay
[3] = test system: Escherichia coli; experiment: Antibacterial activity against Escherichia coli assessed as growth inhibition after 18 to 24 hr by resazurin assay
[4] = test system: Fusarium oxysporum; experiment: Antifungal activity against Fusarium oxysporum assessed as inhibition of fungal spore germination after 24 hr by compound microscopic analysis relative to nystatin
[5] = test system: Alternaria alternata; experiment: Antifungal activity against Alternaria alternata assessed as inhibition of fungal spore germination after 24 hr by compound microscopic analysis relative to nystatin
[6] = test system: Curvularia lunata; experiment: Antifungal activity against Curvularia lunata assessed as inhibition of fungal spore germination after 24 hr by compound microscopic analysis relative to control
[7] = test system: Alternaria alternata; experiment: Antifungal activity against Alternaria alternata assessed as inhibition of fungal spore germination after 24 hr by compound microscopic analysis relative to control
[8] = test system: Fusarium oxysporum; experiment: Antifungal activity against Fusarium oxysporum assessed as inhibition of fungal spore germination after 24 hr by compound microscopic analysis relative to control
[9] = test system: Mycobacterium tuberculosis; experiment: Antibacterial activity against Mycobacterium tuberculosis H37Rv assessed as growth inhibition after 5 days by microplate Alamar blue assay; conditions: 120 h
[10] = test system: Curvularia lunata; experiment: Antifungal activity against Curvularia lunata assessed as inhibition of fungal spore germination after 24 hr by compound microscopic analysis relative to nystatin
[11] = dose or concentration not given here

Compound	MIC [1] [mg/L]	MIC [2] [mg/L]	MIC [3] [mg/L]	fold change (FC) [4]	fold change (FC) [5]	inhibition [6]	inhibition [7]	inhibition [8]	inhibition [6, 11] [%]	inhibition [7, 11] [%]	inhibition [8, 11] [%]	MIC [9] [mg/L]	fold change (FC) [10]
Nc1nc(-c2ccc(NC(=O)c3ccccc3)cc2)c(/N=N/c2ccccc2[N+](=O)[O-])s1	0.125 (≈ 0.281 µM)	250 (≈ 562 µM)	125 (≈ 281 µM)	1.49	1.71	–	–	–	–	–	–	–	–
O=C(N[C@H](CO)[C@H](O)c1ccc([N+](=O)[O-])cc1)C(Cl)Cl [CHLORAMPHENICOL]	0.0039 (≈ 0.0121 µM)	3.9 (≈ 12.1 µM)	3.9 (≈ 12.1 µM)	–	–	–	–	–	–	–	–	–	–
Cc1ccc(/N=N/c2sc(N)nc2-c2ccc(NC(=O)c3ccccc3)cc2)cc1	0.125 (≈ 0.302 µM)	250 (≈ 605 µM)	125 (≈ 302 µM)	–	–	inactive	inactive	inactive	–	–	–	–	–
Nc1nc(-c2ccc(NC(=O)c3ccccc3)cc2)c(/N=N/c2ccccc2)s1	0.25 (≈ 0.626 µM)	250 (≈ 626 µM)	62.5 (≈ 156 µM)	–	–	inactive	inactive	inactive	–	–	–	–	–
Nc1nc(-c2ccc(NC(=O)c3ccccc3)cc2)c(/N=N/c2ccc([N+](=O)[O-])cc2)s1	0.0312 (≈ 0.0703 µM)	125 (≈ 281 µM)	62.5 (≈ 141 µM)	–	–	–	–	–	–	–	–	–	–
Nc1nc(-c2ccc(NC(=O)c3ccccc3)cc2)c(/N=N/c2cccc(Cl)c2)s1	0.125 (≈ 0.288 µM)	250 (≈ 576 µM)	250 (≈ 576 µM)	–	–	inactive	inactive	inactive	–	–	–	–	–
NYSTATIN	–	–	–	–	–	–	–	–	100	100	100	–	–
Nc1nc(-c2ccc(NC(=O)c3ccccc3)cc2)c(/N=N/c2ccc(Cl)cc2)s1	0.125 (≈ 0.288 µM)	250 (≈ 576 µM)	250 (≈ 576 µM)	–	–	inactive	inactive	inactive	–	–	–	–	–
Nc1nc(-c2ccc(NC(=O)c3ccccc3)cc2)cs1	0.125 (≈ 0.423 µM)	250 (≈ 846 µM)	7.8 (≈ 26.4 µM)	–	1.31	–	–	–	–	–	–	16 (≈ 54.2 µM)	1.06
Nc1nc(-c2ccc(NC(=O)c3ccccc3)cc2)c(/N=N/c2ccc(Br)cc2)s1	0.25 (≈ 0.523 µM)	250 (≈ 523 µM)	250 (≈ 523 µM)	2.07	1.11	–	–	–	–	–	–	–	–
Nc1nc(-c2ccc(NC(=O)c3ccccc3)cc2)c(/N=N/c2cccc([N+](=O)[O-])c2)s1	0.0625 (≈ 0.141 µM)	250 (≈ 562 µM)	62.5 (≈ 141 µM)	–	–	inactive	inactive	inactive	–	–	–	–	–
Nc1nc(-c2ccc(NC(=O)c3ccccc3)cc2)c(/N=N/c2ccccc2Cl)s1	0.125 (≈ 0.288 µM)	250 (≈ 576 µM)	125 (≈ 288 µM)	1.17	1.8	–	–	–	–	–	–	–	1.73
COc1ccc(/N=N/c2sc(N)nc2-c2ccc(NC(=O)c3ccccc3)cc2)cc1	0.125 (≈ 0.291 µM)	250 (≈ 582 µM)	7.8 (≈ 18.2 µM)	–	–	inactive	inactive	inactive	–	–	–	–	–
